Experimental data published in publication PMC11842024, “Reversible male contraception by targeted inhibition of serine/threonine kinase 33” (Science (New York, N.Y.), 2024).

Assays:
STK33 = STK33 (Homo sapiens, UniProt Q9BYT3); experiment: LanthaScreen binding assay (ThermoFisher SelectScreen); design: purchased SelectScreen Services (ThermoFisher)
Source text: In vitro biochemical assays. Several small molecule assays were outsourced to SelectScreen Services (ThermoFisher) for STK33 and for off-target kinases (data sets are available on demand).
These assays are LanthaScreen (binding assay) and Z’-LYTE (activity assay). Dose-responses were done with at least 5 different concentrations in duplicates, and parameters were optimized by calculations described below and provided with standard errors.
Calculation of Kd values for kinase inhibitors that bind to the ATP pocket of a kinase from LanthaScreen binding data. DynaFit (71) was used to fit complex equilibria where a tracer is displaced by a dilution series of a kinase inhibitor. This method relies on the concentration of inhibitor, as well as the concentration of kinase and tracer, and Kd of the tracer. The latter three parameters are tabulated by ThermoFisher for each kinase in the LanthaScreen assay panel. […]
Since Kd and Ki values are defined the same way, in other words, Kd = [E] [I] / [EI] = Ki, Kd and Ki values can be compared. […]

[1] = Alanine transaminase (ALT) and aspartate transaminase (AST) assays in serum; format: in vivo, mice
Protocol: Alanine transaminase (ALT) and aspartate transaminase (AST) assays. On day 45 of protocol 1 and day 7 and day 63 of protocol 2, three mice from each protocol were euthanized, and blood was collected through cardiac puncture. The serum was isolated by centrifuging the whole blood samples at 1500 g for 10 min and then maintained on wet ice before analysis. ALT and AST levels were measured in duplicates using assay kits (StanBio, Boerne, TX) according to the manufacturer's instructions. ALT and AST levels were determined using the rate of NADH oxidation, which was quantified by measuring absorbance at 340 nm using a CLARIOstar plate reader (BMG Labtech in Cary, NC). ALT and AST were tested for significance at multiple collection time points, tests for significance included a test for normality (Shapiro-Wilk test) and following the test for normality were then analyzed using an unpaired t-test with significance determined by an alpha of P = 0.05. […]
any significant differences between groups.
(§1) Fertility analysis. Sexually mature male C57/129 hybrid mice were randomly assigned to either the vehicle control treatment or the CDD-2807 treatment groups. Drug formulation and injections were as follows: for protocol 1 mice receiving the 15 mg/kg CDD-2807 twice daily dosing had the compound dissolved in DMSO, which was injected at 5% of the final volume in 10% Captisol and water. For protocol 2 mice receiving a single daily dose of 50 mg/kg CDD-2807, the compound was dissolved in DMSO and injected at 5% in 20% Captisol and water. All injections were administered as i.p. injections, and for the 15 mg/kg CDD-2807 and DMSO control mice, the injections were delivered in the morning and the evening. Mice in the 50 mg/kg dosing received i.p. injections once in the evening. Weights were measured daily prior to drug administration and monitored throughout the entirety of the injection period. […]

male mice = experiment: Fertility analysis and reversibility in male mice; format: in vivo
Protocol: On the basis of molecular modeling, mouse and human STK33 have identical ATP binding pockets (fig. S19), consistent with evolutionary conservation and function of STK33. To determine the consequences of STK33 inhibition in vivo, we evaluated reproductive outcomes in male mice dosed with CDD-2807. […] In protocol 1, adult male mice (n = 6 per cohort) were treated with vehicle control or CDD-2807 at 15 mg kg^−1 intraperitoneally twice per day for 21 days, subsequently housed continuously with fertile female mice of reproductive age (two per male), and then evaluated at day 45 for effects of CDD-2807 on the male reproductive tract (after the first litter was born) or continued to be housed with the females until day 66 after the completion of the 60-day breeding data collection (fig. S21A). In protocol 2, adult male mice (n = 7 per cohort) were treated with vehicle control or CDD-2807 at 50 mg kg^−1 once per day for 21 days, subsequently housed continuously with females (two per male), and then evaluated at later time points (fig. S21B). […] In month 2, litters were born to all females housed with the six control males (2.0 ± 0 litters per male; 7.25 ± 0.17 pups per female per litter) (Fig. 4A). By contrast, no litters were produced by females housed with males who received CDD-2807 (Fig. 4A). For protocol 2 mice, all seven control males sired litters from both females in month 1 (7.29 ± 0.18 pups per litter per female), whereas only one female became pregnant and delivered a single pup from the seven CDD-2807–treated males (50 mg kg^−1 day^−1) (0.07 ± 0.07 pups per litter per female) (Fig. 4B). […] Thus, CDD-2807 delivery in both protocols induced a contraceptive effect. […]
as §1, with “period. Injections were given for 21 days prior to introduction of female mice. During the fertility assessment, males were housed continuously with two C57/129 sexually mature females for 45 days to generate approximately two months of fertility data. During the fertility assessment, the total number of pups born per litter sired by each male were counted and the total number of litters and pups sired per male over the entire trial was calculated. Mean pup number and SEM were used to determine differences in average number of” for “period.”
fig. S21. Protocol timelines of mouse breeding and reversibility study. (A) Protocol 1 represents the 15 mg/kg twice per day drug dosing of CDD-2807. Samples were collected at euthanasia on day 45 from half of the male mice, allow ing for the completion of the 30-day breeding data to be collected and to give the male mice sufficient time with their female counterparts to initiate the day 60 breeding data. After completion of the entire 60-day breeding data, protocol 1 mice were then “rested” for 21 days prior to measuring their recovery period where they were housed with females to determine fertility. ( B) Protocol 2 represents the 50 mg/kg per day drug dosing of CDD-2807. Samples were collected at euthanasia on day 63 from half of the male mice; this allowed for the entire completion of the initial breeding data prior to collections. […]

Chain of STK33 (Q9BYT3 whole entry): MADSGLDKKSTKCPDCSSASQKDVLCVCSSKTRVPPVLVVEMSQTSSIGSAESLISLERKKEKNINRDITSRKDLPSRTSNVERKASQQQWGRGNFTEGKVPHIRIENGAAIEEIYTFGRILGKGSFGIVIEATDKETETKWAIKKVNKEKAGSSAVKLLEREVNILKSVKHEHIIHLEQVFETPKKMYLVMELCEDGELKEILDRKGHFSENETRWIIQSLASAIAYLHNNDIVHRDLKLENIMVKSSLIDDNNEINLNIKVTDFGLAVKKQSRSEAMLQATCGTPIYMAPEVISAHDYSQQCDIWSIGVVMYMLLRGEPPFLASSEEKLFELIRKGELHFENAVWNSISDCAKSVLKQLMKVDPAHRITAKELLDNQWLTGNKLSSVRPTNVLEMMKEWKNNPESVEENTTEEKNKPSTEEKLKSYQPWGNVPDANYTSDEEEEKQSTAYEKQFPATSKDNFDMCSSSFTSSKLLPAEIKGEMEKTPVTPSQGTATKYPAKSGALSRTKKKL

`O=C(c1ccc2[nH]nc(C#Cc3ccccc3-c3ccccc3)c2c1)N1CC2(CCCNC2)C1` [CDD-2807] gave a Kd (STK33) of 0.02 nM, an ALT ([1]; Protocol 1, 45 Days) of 20.33 ± 5.30 IU/L and an AST ([1]; Protocol 1, 45 Days) of 35.80 ± 3.09 IU/L. For the same compound, the ALT ([1]; Protocol 2, 7 Days) was 23.65 ± 2.50 IU/L, the AST ([1]; Protocol 2, 7 Days) was 21.66 ± 3.30 IU/L and the ALT ([1]; Protocol 2, 63 Days) was 45.97 ± 11.04 IU/L. For the same compound, the AST ([1]; Protocol 2, 63 Days) was 29.76 ± 6.79 IU/L, the litters per male (male mice; protocol 1 (15 mg/kg i.p. twice per day), month 1) was 1.0 ± 0.37 litters per male and the “pups per female per litter” value (male mice; protocol 1, month 1) was 0.92 ± 0.34 pups per female per litter. For the same compound, the “treated males that sired litters” value (male mice; protocol 1, month 1) was “four of the six”, the “litters produced by females housed with treated males” value (male mice; protocol 1, month 2) was “no litters” and the “pups per litter per female after recovery” value (male mice; protocol 1, treatment halted at day 63, 21 days rest, first month of breeding) was 7.67 ± 0.61 pups per litter per female. For the same compound, the “pups per litter per female” value (male mice; protocol 2 (50 mg/kg/day i.p.), month 1) was 0.07 ± 0.07 pups per litter per female, the “time to sire first litters after treatment (fertility resumption)” value (male mice; protocol 2, after completion of treatment) was 53.5 ± 5.1 days and the litters sired (male mice; protocol 2, month 2) was “did not sire any litters”.
